Experimental findings from patent US20150353495A1 (PORTOLA PHARMACEUTICALS, INC., priority 2010, published 2015) are described below.

pIC50: −log10 of the molar value.

In test [1] the target is T1, full length active recombinant SYK enzyme (Homo sapiens, UniProt P43405).
T1 construct: full length active recombinant SYK enzyme (Millipore, Calif.); purchased Millipore
Put plainly: Inhibition of Syk tyrosine phosphorylation activity (LANCE TR-FRET). The class given is biochemical. The source says:
This example illustrates methods for evaluating the compounds of the invention, along with results obtained for such assays. The in vitro and in vivo human Syk activities of the inventive compounds can be determined by various procedures known in the art, such as a test for their ability to inhibit the activity of human plasma Syk. […] The IC50 value is the concentration (in nM) of the compound required to provide 50% inhibition of human Syk proteolytic activity.
An in vitro assay for detecting and measuring inhibition activity against Syk is as follows:
Inhibition of Syk Tyrosine Phosphorylation Activity
Potency of candidate molecules for inhibiting Syk tyrosine phosphorylation activity is assessed by measuring the ability of a test compound to inhibit Syk-mediated tyrosine phosphorylation of a Syk-specific substrate.
SYK tyrosine phosphorylation activity is measured using the LANCE™ Technology developed by Perkin Elmer Life and Analytical Sciences (Boston, Mass.). LANCE™ refers to homogeneous time resolved fluorometry applications using techniques such as time-resolved fluorescence resonance energy transfer assay (TR-FRET) (see generally for procedures in Perkin Elmer Application Note-How to Optimize a Tyrosine Kinase Assay Using Time Resolved Fluorescence-Based LANCE Detection, wwww.perkinelmer.com/lifesciences). The assay principle involves detection of a phosphorylated substrate using energy transfer from a phosphospecific europium-labeled antibody to streptavidin-allophycocyanin as an acceptor.
To test the ability of candidate molecules to inhibit SYK tyrosine phosphorylation activity, molecules are reconstituted in 30% DMSO and serially diluted 1:3 with the final dilution containing DMSO in the absence of the candidate molecule. The final DMSO concentration in the assay is 3%. Kinase assays are performed as a two part reaction. The first reaction is a kinase reaction and which comprises of a candidate molecule, full length active recombinant SYK enzyme (Millipore, Calif.) and biotin-labeled SYK-specific substrate biotin-[…]-OH. The second reaction involves termination of the kinase reaction and the simultaneous addition of the detection reagents-europium-labeled anti-phosphotyrosine reagent (Eu-W1024-PY100, Perkin Elmer, Boston, Mass.) and Streptavidin-Allophycocyanin detection reagent (SA-APC, Prozyme, CA). The kinase reaction is performed in a black U-bottom 96-well microtitre plate. The final reaction volume is 50 μL and contains a final concentration of 1 nM active SYK enzyme, 550 nM SYK-substrate, and 100 nM ATP diluted in a buffer containing 50 mM Tris pH 7.5, 5 mM MgCl2, and 1 mM DTT. The reaction is allowed to proceed for 1 hour at room temperature. The quench buffer contains 100 mM Tris pH 7.5, 300 mM NaCl2, 20 mM EDTA, 0.02% Brij35, and 0.5% BSA. The detection reagents are added to the reaction mixture at the following dilutions-1:500 for Eu-W1024-PY100 and 1:250 for SA-APC. The kinase reaction is terminated by the addition of 50 μL quench buffer containing the detection reagents. […] Detection of the phosphorlated substrate in the absence and presence of inhibitors is measured in the TR-FRET instrument, Analyst HT (Molecular Probes, Sunnyvale, Calif.) and the condition for measurements are set up using CriterionHost Release 2.0 (Molecular Probes, Sunnyvale, Calif.). […] Inhibition of SYK-tyrosine kinase activity is calculated as the maximum response observed in the presence of inhibitor, compared to that in the absence of inhibitor. […]

Test [2] addresses T2, JAK2 (Homo sapiens, UniProt O60674).
T2 construct: 5 μl of catalytic domain recombinant Kinase enzyme+Tyr peptide substrate (Invitrogen, CA); purchased Invitrogen
Put plainly: Z'-LYTE kinase assay JAK2. The test is classed as biochemical. In a few lines:
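Catalytic-domain recombinant kinase was incubated with Tyr6 FRET peptide, ATP and compound (1% DMSO final) for 1 h at room temperature. Protease development followed for 1 h, cleaving only non-phosphorylated peptide. Inhibition of phosphorylation was read as coumarin/fluorescein FRET fluorescence.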

T2 sequence (O60674 849-1124 limits assumed): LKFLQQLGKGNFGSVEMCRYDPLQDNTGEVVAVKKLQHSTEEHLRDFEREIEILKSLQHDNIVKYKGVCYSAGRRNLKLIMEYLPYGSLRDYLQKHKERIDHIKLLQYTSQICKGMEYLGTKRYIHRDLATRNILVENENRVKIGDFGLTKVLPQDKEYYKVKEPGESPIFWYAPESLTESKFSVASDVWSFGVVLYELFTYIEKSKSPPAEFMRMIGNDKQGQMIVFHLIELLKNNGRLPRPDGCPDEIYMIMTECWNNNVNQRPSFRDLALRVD

As a reminder, the pIC50 is the negative decadic logarithm of the IC50, by convention in mol/L. Turning to `CC(=O)N1CCN(c2ccc(Nc3cc(NC4CC4)c(C(N)=O)cn3)cc2)CC1` [Example 2], the pIC50 in test [1] was under 6.00; in test [2], 6.00 to 7.00.
In the same order, the values of `CC(=O)N1CCN(c2ccc(Nc3cc(NCc4cccc(F)c4)c(C(N)=O)cn3)cc2)CC1` [Example 229] are under 6.00 and 7.00 to 8.00.
